From PMC3692405, “Disease-associated mutations in CNGB3 promote cytotoxicity in photoreceptor-derived cells” (Molecular Vision, 2013) come the findings set out here.

For data set [1], the system named is channel-transfected 661W cells. Put plainly: LDH-release cytotoxicity assay, channel-transfected cells. In kind it is cell-based, mouse. Particulars: CPT-cAMP alone, 0.1 to 10 µM; data not shown. As to the method:
The mouse photoreceptor 661W cell line used in this study was generously provided by Dr. Al-Ubaidi (University of Oklahoma Health Sciences Center, Oklahoma City, OK). The 661W cells were routinely maintained in Dulbecco’s modified Eagle’s medium (Gibco, Carlsbad, CA), supplemented with 10% fetal bovine serum (Gemini Bioproducts, Sacramento, CA) and 1% penicillin/streptomycin (Gibco), at 37 °C in a humidified incubator with 5% CO2; cells were subcultured every 3–5 days. The 661W cells were transfected with pOPRSVI plasmids encoding human cone CNG channel subunits using Lipofectamine™ 2000 and OptiMEM (Life Technologies, Carlsbad, CA) according to the manufacturer’s protocol for cells in suspension. […]
For most experiments, the LDH Cytotoxicity Detection Kit (Roche Applied Science) was used according to the manufacturer’s protocol (see also [37]). […] Following treatment, half of the culture medium was transferred to another 96-well plate and the LDH released into the culture medium was measured to assess the number of damaged/dead cells. Cells in the original plate were then lysed and the total amount of cellular LDH was assessed. The percentage cytotoxicity was then calculated from the ratio of LDH concentration in the medium/cells, and was normalized to the percentage cytotoxicity in untreated cells transfected with control pOPRSVI plasmid only.

Data set [2] deals with T1, homomeric CNGA3-only channels (Homo sapiens, UniProt Q16281).
T1 construct: expressed in transfected cells; host or cells: Xenopus laevis oocytes injected with cRNA transcribed from pGEMHE constructs
T1 sequence (Q16281 1-694): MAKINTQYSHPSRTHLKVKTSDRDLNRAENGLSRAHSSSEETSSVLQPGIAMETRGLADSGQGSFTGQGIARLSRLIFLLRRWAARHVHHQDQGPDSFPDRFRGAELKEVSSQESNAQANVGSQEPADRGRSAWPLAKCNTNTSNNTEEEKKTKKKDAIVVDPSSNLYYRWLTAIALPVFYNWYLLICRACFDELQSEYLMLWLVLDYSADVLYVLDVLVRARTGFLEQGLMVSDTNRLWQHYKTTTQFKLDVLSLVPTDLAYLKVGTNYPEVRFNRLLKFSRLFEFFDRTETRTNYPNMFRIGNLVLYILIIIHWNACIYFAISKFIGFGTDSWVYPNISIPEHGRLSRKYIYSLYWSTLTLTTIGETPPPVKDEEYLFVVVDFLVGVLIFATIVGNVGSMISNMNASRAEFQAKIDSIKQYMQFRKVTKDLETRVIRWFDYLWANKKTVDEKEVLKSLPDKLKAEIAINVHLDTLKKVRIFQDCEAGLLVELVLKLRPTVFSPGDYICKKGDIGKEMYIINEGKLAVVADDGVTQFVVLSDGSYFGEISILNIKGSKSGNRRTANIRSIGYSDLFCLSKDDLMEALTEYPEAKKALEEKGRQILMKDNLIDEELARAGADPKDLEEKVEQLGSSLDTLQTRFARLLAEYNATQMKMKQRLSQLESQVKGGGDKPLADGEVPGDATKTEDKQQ
Put plainly: Inside-out patch-clamp recording of channels expressed in Xenopus oocytes (CNGA3 only). In kind it is biochemical. Particulars: +80 mV, Hill fit, mean±SEM, n=9. Here is the method: For heterologous expression in Xenopus laevis oocytes, identical amounts of cDNA were linearized using SphI or NheI, and capped cRNA was transcribed in vitro using the T-7 RNA polymerase mMESSAGE mMACHINE® kit (Ambion, Austin, TX). cRNA concentrations and relative amounts were determined by denaturing gel electrophoresis and KODAK 1D image analysis software (Rochester, NY), as well as by spectrophotometry. […] Oocytes were incubated in ND96 (96 mM NaCl, 2 mM KCl, 1.8 mM CaCl2, 1 mM MgCl2, and 5 mM HEPES, pH 7.6, supplemented with 10 μg/ml gentamycin).
Two to seven days after microinjection of cRNA, patch-clamp experiments were performed using the inside-out configuration with an Axopatch 200B amplifier (Axon Instruments, Foster City, CA). Recordings were made at 20–23 °C. Data were acquired using Pulse software (HEKA Elektronik, Lambrecht, Germany). Current traces were elicited by voltage steps from a holding potential of 0 mV to +80 mV, then to −80 mV and back to 0 mV. […] We measured sensitivity to block by L-cis-diltiazem (RBI, Natick, MA) applied to the intracellular face of the patch in the presence of 0.1 μM CPT-cGMP. […] Data were analyzed using Igor (Wavemetrics, Lake Oswego, OR), SigmaPlot, and SigmaStat (Systat Software Inc., San Jose, CA). […] Statistical significance was determined using a Student t test or Mann–Whitney rank sum test, and a p value of <0.05 was considered significant.

Structures are written as SMILES.

Regarding `Nc1ncnc2c1nc(Sc1ccc(Cl)cc1)n2[C@@H]1O[C@@H]2COP(=O)(O)O[C@H]2[C@H]1O` [CPT-cAMP, CPT-adenosine 3′,5′-cyclic monophosphate], in data set [1], the “effect on relative cytotoxicity” value is “no significant increase in relative cytotoxicity”.

As for `Nc1nc2c(nc(Sc3ccc(Cl)cc3)n2[C@@H]2O[C@@H]3COP(=O)(O)O[C@H]3[C@H]2O)c(=O)[nH]1` [CPT-cGMP, 8-(4-chlorophenylthio) guanosine 3′,5′-cyclic monophosphate], the “Hill slope h, CPT-cGMP activation” value in data set [2] turned out to be 2.2±0.1. In addition, the EC50 in data set [2] (read-out: apparent CPT-cGMP affinity K1/2, CPT-cGMP (channel activation)) is 114 ± 7.9 nM.
